Assays:
AphAEc-His6 = target: T1, AphAEc-His6 (Escherichia coli, UniProt P0AE22); test: DRaCALA competition against […]-cAMP; assay type: binding; settings: 5 mM AMP (figure legend: 4 mM); 2 nM 32P-cAMP; 40 mM Tris pH 7.5, 100 mM NaCl, 10 mM MgCl2
T1 construct: gene aphA; signal peptide removed, C-terminal His6 kept, pET28a, expressed in E. coli; non-natural dimer by SEC

His6-AphAEc = target: T2, His6-AphAEc (Escherichia coli, UniProt P0AE22); test: DRaCALA competition against […]-cAMP; assay type: binding; settings: 5 mM AMP (figure legend: 4 mM); 2 nM 32P-cAMP; 40 mM Tris pH 7.5, 100 mM NaCl, 10 mM MgCl2
T2 construct: gene aphA; signal peptide removed, N-terminal His6 kept, pET28a, expressed in E. coli; tetramer by SEC

His6-HelHi = target: T3, His6-HelHi (Haemophilus influenzae, UniProt P26093); test: pNPP phosphatase assay, A405; assay type: biochemical; settings: 1 mM pNPP, 15 nM enzyme, pH 8 and 5.6
T3 construct: gene hel; N-terminal His6 kept, pET28a-his-helHi, expressed in E. coli

[1] = target: the molecule itself; test: SEC; Superdex 200 Increase 10/300 GL on an AKTA system; size estimated against standard proteins

T3 sequence (P26093 21-274): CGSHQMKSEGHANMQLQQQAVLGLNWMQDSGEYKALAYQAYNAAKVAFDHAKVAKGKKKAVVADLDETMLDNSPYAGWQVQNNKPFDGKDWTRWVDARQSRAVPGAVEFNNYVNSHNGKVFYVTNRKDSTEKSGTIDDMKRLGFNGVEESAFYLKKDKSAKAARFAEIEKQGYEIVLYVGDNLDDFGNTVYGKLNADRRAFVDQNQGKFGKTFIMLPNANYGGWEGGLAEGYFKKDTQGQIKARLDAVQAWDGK

In the case of `Nc1ncnc2c1ncn2[C@@H]1O[C@H](COP(=O)(O)O)[C@@H](O)[C@H]1O` [AMP], the “DRaCALA competition against 32P-cAMP” value (AphAEc-His6) is reported as “the binding fractions dropped to nearly zero for AMP” and the “DRaCALA competition against 32P-cAMP” value (His6-AphAEc) is reported as “the binding fractions dropped to nearly zero for AMP”.

With `O=[N+]([O-])c1ccc(OP(=O)(O)O)cc1` [p-Nitrophenyl Phosphate] the “pNPP phosphatase assay, A405” value (His6-HelHi) was “acid phosphatase assay of the His6-HelHi protein”.

B1: tagless AphAEc (periplasmic acid phosphatase AphA of Escherichia coli, His6-SUMO tag cleaved off by Ulp1) (enzyme)
chain: SPSPLNPGTNVARLAEQAPIHWVSVAQIENSLAGRPPMAVGFDIDDTVLFSSPGFWRGKKTFSPESEDYLKNPVFWEKMNNGWDEFSIPKEVARQLIDMHVRRGDAIFFVTGRSPTKTETVSKTLADNFHIPATNMNPVIFAGDKPGQNTKSQWLQDKNIRIFYGDSDNDITAARDVGARGIRILRASNSTYKPLPQAGAFGEEVIVNSEY
notes: AphA, nonspecific periplasmic acid phosphatase of Escherichia coli K-12; protein of around 25 kDa on SDS-PAGE; pET24d-his-sumo-aphAEc; linker between SUMO and aphA removed by mutagenesis; probably the mature protein as in m1 and m2; also called cleaved His6-SUMO-AphAEc; source: E. coli, purified; His6-SUMO tag cleaved off with His6-Ulp1, size-exclusion chromatography; not shown: His6-SUMO, …
In the case of B1, the “stoichiometry N” value [1] is reported as 4.

B2: AphAEc-His6 (periplasmic acid phosphatase AphA of Escherichia coli, signal peptide removed, C-terminal His6 tag) (enzyme, UniProt P0AE22 26-237, looked up)
chain: SSPSPLNPGTNVARLAEQAPIHWVSVAQIENSLAGRPPMAVGFDIDDTVLFSSPGFWRGKKTFSPESEDYLKNPVFWEKMNNGWDEFSIPKEVARQLIDMHVRRGDAIFFVTGRSPTKTETVSKTLADNFHIPATNMNPVIFAGDKPGQNTKSQWLQDKNIRIFYGDSDNDITAARDVGARGIRILRASNSTYKPLPQAGAFGEEVIVNSEY
notes: AphA, nonspecific periplasmic acid phosphatase of Escherichia coli K-12; signal peptide removed from the construct; pET28a-aphAEc-his; also called AphA-His6; Ct His6-tagged AphAEc; source: E. coli, purified (Ni-NTA, size-exclusion chromatography on Superdex 200 Increase); not shown: His6, C-terminal, kept
In the case of B2, the “stoichiometry N” value [1] is reported as 2.

B3: His6-AphAEc (periplasmic acid phosphatase AphA of Escherichia coli, signal peptide removed, N-terminal His6 tag) (enzyme, UniProt P0AE22 26-237, looked up)
chain: B2 chain
notes: AphA, nonspecific periplasmic acid phosphatase of Escherichia coli K-12; signal peptide removed from the construct; pET28a-his-aphAEc; also called Nt His6-tagged AphAEc; source: E. coli, purified (Ni-NTA, size-exclusion chromatography on Superdex 200 Increase); not shown: His6, N-terminal, kept
For B3, the “stoichiometry N” value [1] was 4.
